Experimental findings from publication PMC3091868, “A Novel Structural Framework for α1A/D-Adrenoceptor Selective Antagonists Identified Using Subtype Selective Pharmacophores” (PLoS ONE, 2011) are described below.

Where two headings read alike, the source gives them in different places. A value given as a limit tells only on which side of the number the result lay.

Assay [1] concerns the target T1, α1D-AR (Rattus norvegicus, UniProt P23944).
T1 construct: expressed in transfected cells; host or cells: COS-1
T1 sequence (P23944 1-561): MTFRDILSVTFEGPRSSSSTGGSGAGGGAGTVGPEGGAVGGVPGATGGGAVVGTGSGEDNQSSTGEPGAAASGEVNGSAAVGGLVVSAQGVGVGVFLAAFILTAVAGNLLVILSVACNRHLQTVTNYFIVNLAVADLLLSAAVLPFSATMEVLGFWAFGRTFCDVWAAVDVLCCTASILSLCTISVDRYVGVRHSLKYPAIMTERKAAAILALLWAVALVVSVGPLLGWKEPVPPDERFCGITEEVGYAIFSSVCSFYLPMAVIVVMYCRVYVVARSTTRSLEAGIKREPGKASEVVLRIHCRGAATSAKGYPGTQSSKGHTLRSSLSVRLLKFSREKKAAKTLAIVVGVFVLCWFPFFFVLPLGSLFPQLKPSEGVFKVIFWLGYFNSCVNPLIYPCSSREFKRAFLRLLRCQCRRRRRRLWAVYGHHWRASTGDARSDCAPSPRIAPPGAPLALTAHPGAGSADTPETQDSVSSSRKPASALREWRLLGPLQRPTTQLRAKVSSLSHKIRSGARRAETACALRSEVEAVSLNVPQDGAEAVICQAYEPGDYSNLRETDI
Kind of assay: [3H]Prazosin competition/saturation binding on COS-1 membranes expressing α1D-AR. Further details: species or system rodent. The following applies: [3H]Prazosin 200 pM. The protocol: (§1) COS-1 cells (American Type Culture Collection, Manassas, VA) were cultured in Dulbecco's modified Eagle's medium (DMEM) supplemented with 10% (v/v) heat inactivated fetal bovine serum (FBS), 100 µg ml^−1 penicillin and 100 µg ml^−1 streptomycin. Cells were maintained and passaged upon reaching confluence by standard cell culture techniques. pMT4 plasmids containing rodent α1-AR (a kind gift from Prof R Graham, Victor Chang Cardiac Research Institute, Australia) were used to transfect cells. Transient expression in COS-1 cells was accomplished using two techniques; the diethylaminoethane-dextran (DEAE-dextran) and Lipofectamine 2000 (Invitrogen, Carlsbad, CA, USA) methods. Briefly, the DEAE-dextran method involved washing of cells with phosphate buffered saline (PBS), followed by the addition of the DNA mixture (12–25 µg/4×10^6 cells) in DEAE-dextran (10 mg ml^−1) to cells at 60–80% confluency. Following a 3 h incubation, a PBS wash with 10% DMSO was used to shock the cells. Cells were harvested 72 h post transfection. For the Lipofectamine 2000 method, cells were incubated for 12 h with Opti-MEM (GIBCO BRL, Gaithersburg, MD, USA) containing Lipofectamine 2000.
Membranes were prepared as described previously. Briefly, COS-1 cells were transiently transfected using the DEAE-dextran method. […] Protein concentration was determined using Bradford reagent (Sigma, St Louis, MO, USA).
For all binding experiments, the reaction mixture was incubated for 1 h at room temperature, stopped by the addition of 4°C PBS and filtered with a Brandel cell harvester (Gaithersburg, MD, USA) on GF/C filters. Nonspecific binding was defined as binding in the presence of 100 µM phentolamine hydrochloride.
Nonlinear regression analysis of saturation and competition binding assay data was performed using the […] curve fitting program GraphPad Prism (San Diego, CA, USA). […] The competitive binding data for each ligand was tested for both one and two -site binding.

Assay [2] addresses T2, α1A-AR (Rattus norvegicus, UniProt P43140).
T2 construct: expressed in transfected cells; host or cells: COS-1
T2 sequence (P43140 1-466): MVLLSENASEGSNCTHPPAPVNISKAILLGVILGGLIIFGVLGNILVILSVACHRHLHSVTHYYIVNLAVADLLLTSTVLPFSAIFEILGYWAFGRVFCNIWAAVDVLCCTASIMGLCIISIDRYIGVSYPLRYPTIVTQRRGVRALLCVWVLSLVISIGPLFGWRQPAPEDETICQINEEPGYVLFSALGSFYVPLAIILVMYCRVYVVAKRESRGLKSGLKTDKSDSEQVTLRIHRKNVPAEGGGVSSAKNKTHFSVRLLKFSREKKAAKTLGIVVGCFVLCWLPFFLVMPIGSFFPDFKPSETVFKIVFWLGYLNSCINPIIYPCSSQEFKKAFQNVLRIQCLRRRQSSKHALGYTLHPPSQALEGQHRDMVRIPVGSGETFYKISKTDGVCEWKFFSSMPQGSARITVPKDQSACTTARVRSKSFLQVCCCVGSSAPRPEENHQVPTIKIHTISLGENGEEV
Kind of assay: Phosphatidylinositol hydrolysis (IP accumulation) assay in COS-1 cells expressing α1A-AR. In kind it is cell-based, rodent. Conditions: for IC50: 20 min compound, then 10 µM (-)-norepinephrine 30 min, COS-1 cells, read-out: pIC50, inhibition of norepinephrine induced IP accumulation at α1A-AR (converted). How it is done: as §1
Accumulation of [^3H] inositol phosphates (IPs) was determined as described previously. Briefly, COS-1 cells were transiently transfected with α1A, α1B and α1D - AR pMT4 plasmids using the Lipofectamine method. 24 h after transfection, cells were seeded into 96 well plates and labelled overnight with 20 µCi ml^−1 [^3H]myo-inositol in inositol free DMEM supplemented with 5% charcoal stripped FBS. Cells were washed twice with inositol free DMEM, and incubated in inositol free DMEM for 2 h at 37°C. Cells were treated for 20 minutes with LiCl (20 mM) and propanolol (20 µM) in the presence or absence of tested compounds. Agonists were then added for 30 min, and the reaction was terminated by addition of 0.4 M formic acid. Cells were lysed by freeze thawing twice and were applied to AG 1-X8 columns. Total IPs were eluted with 1 M ammonium formate in 0.1 M formic acid. 200 µL of eluted sample was diluted with 1 mL reverse osmosis water and 5 mL Ultimaflow scintillation fluid (Perkin Elmer), and were counted in a liquid scintillation counter.
Compounds were administered alone (100 µM) or prior to the addition of 10 µM […], to screen for agonist or antagonist activity respectively.
Figure 2 Inhibition of norepinephrine induced inositol phosphate (IP) accumulation at α1A- AR. α1A-AR transfected cells labelled overnight with [^3H]- myo-inositol were treated with indicated concentrations (300 µM – 0.1 µM) of test compounds, 1 (▪), 2 (▵), and 11 (○), for 20 min. This was followed by a 30 min. stimulation with 10 µM (-)- norepinephrine, following which total IP accumulation was determined. Data was normalized against basal COS-1 cell IP production and expressed as a percentage of the (-)-norepinephrine-stimulated maximal IP response of that receptor subtype. The data represented the mean ± SE of a single experiment (n = 4–5), performed in triplicate.
Figure 3 Inositol phosphate (IP) accumulation in the presence of norepinephrine and compound 8 at the α1A- adrenoceptor (AR). α1A-AR transfected cells were labelled with [^3H]- myo-inositol. Following a 20 min. treatment with lithium chloride (20 mM) and propanolol (20 µM) the cells were stimulated with the indicated concentrations (300 µM − 0.1 µM) of (-) norepinephrine (•) or compound 8 (▪) for 30 min. Total inositol phosphate (IP) accumulation was determined as described under “Materials and Methods”. Data was normalized against basal COS-1 cell IP production and expressed as a percentage of the (-)-norepinephrine-stimulated maximal IP response. The data represents the mean ± SE of three separate experiments (n = 3), performed in duplicate or triplicate.

Where [3] appears, read: antilog of mean pKi, Cheng-Prusoff, read-out: Ki α1D-AR.
The mark [4] stands for this setting: pKi = -Log Ki, read-out: pKi α1D-AR (converted).

`COc1cc2c(cc1OC)C1CC(C)=C(c3ccccc3)CN1CC2` (centres unmarked) [Compound 11]: the Ki is 1600 nM in assay [1] (setting [3]) and 1510 nM in assay [1] (setting [4]). Besides, the IC50 in assay [2] was 13200 nM.
As for `Cc1ccc(C)c(N2CCN(CC(O)COC(C)(C)C)CC2)c1` (centres unmarked) [Compound 1], the Ki is < 2000 nM in assay [1] (Ki α1D-AR, antilog of mean pKi, Cheng-Prusoff); 830 nM in assay [1] (setting [3]); 794 nM in assay [1] (setting [4]). In addition, the IC50 in assay [2] was 25100 nM.
Turning to `CCCCCCCCN(CCCCCCCC)CC(O)c1ccccc1Cl` (centres unmarked) [Compound 8], the Ki in assay [1] (setting [3]) amounted to 48700 nM. For the same compound, in assay [2] (100 µM compound alone, agonist screen, n = 3), the “IP production, compound alone, compared to control, α1A-AR” value was “distinct trend of increased IP production”. Moreover, the “Maximal IP production, % of the (-) norepinephrine control” value in assay [2] (COS-1 cells expressing α1A-AR) was “approximately 30%”. In assay [2] (COS-1 cells expressing α1A-AR, 30 min, n = 3, read-out: pEC50, increase in intracellular IP at α1A-AR (converted)), the EC50 is 5500 nM.
